EC50 and CC50 data for 22 compounds are collected here from US11078193B2 (priority 2014, dated 2021).

For series [1], the system named is HBV. The experiment in a line: anti HBV activity, HepG2.117 inducibly HBV producing cell line (Tet-off), intracellular HBV DNA by realtime PCR. Conditions: Hepatitis B virus, 72 h, HepG2.117 cells, 3 days of treatment. Format: cell-based.
Series [2] is described as follows: ATP based toxicity assay (ATPlite), HepG2 cell line. Conditions: human, HepG2 cells, ATPlite (ATP levels). The protocol: Alternatively, cytotoxicity was determined via an ATP-assay: The ATPlite kit from Perkin Elmer was used to assess compound cytotoxicity on the HepG2 cell line by determination of the ATP (adenosine triphosphate) levels. ATP is a marker for functional integrity and cell viability, because it is present in all metabolically active cells and any form of cell injury will result in a rapid decline in cellular ATP concentration. After compound incubation, 1 volume of ATPlite solution was added to the cells and the luminescence signal was measured.
A general note: In ATP-based viability assays light output follows the ATP content of the culture.

Series [3] relates to HBV. The experiment in a line: anti-HBV activity, HepG2.2.15 stable transfected cell line, HBV DNA from secreted virions by realtime PCR. Format: cell-based. Conditions: Hepatitis B virus, 144 h, HepG2.2.15 cells, 6 days of treatment.
Series [4] can be described thus: Cytotoxicity, HepG2 cells, Resazurin assay. Format: cell-based. Conditions: human.

Turning to `Cn1cc(S(=O)(=O)NC2(C(F)(F)F)CC2)c(F)c1C(=O)Nc1ccnc(Cl)c1` [Compound 175, N-(2-chloro-4-pyridyl)-3-fluoro-1-methyl-4-[[1-(trifluoromethyl)cyclopropyl]sulfamoyl]pyrrole-2-carboxamide], the EC50 – broadly, the concentration at which the effect is half-maximal – in the series on HBV [1] was 20 nM; in the series on HBV [3], 120 nM. For the same compound, the CC50 (commonly the concentration at which the toxic effect on the cells reaches its halfway point) at 4 days in series [2] is greater than 25000 nM.

For `Cc1cc(NC(=O)c2c(F)c(S(=O)(=O)N[C@H](C)C(C)(F)F)cn2C)cc(C(F)F)n1` [Compound 178, N-[2-(difluoromethyl)-6-methyl-4-pyridyl]-4-[[(1R)-2,2-difluoro-1-methyl-propyl]sulfamoyl]-3-fluoro-1-methyl-pyrrole-2-carboxamide], the EC50 was 50 nM with HBV [1] and 240 nM with HBV [3]. In addition, in series [2], the CC50 at 4 days is greater than 25000 nM.

Consider `C[C@@H](NS(=O)(=O)c1cn(C)c(C(=O)Nc2ccnc(Br)c2)c1Cl)C(C)(F)F` [Compound 105, N-(2-bromo-4-pyridyl)-3-chloro-4-[[(1R)-2,2-difluoro-1-methyl-propyl]sulfamoyl]-1-methyl-pyrrole-2-carboxamide], for which the EC50 was 20 nM in the series with HBV [1] and less than 100 nM in the series with HBV [3]. For the same compound, the CC50 at 4 days in series [2] was 23300 nM; in series [4], greater than 25000 nM.

Consider `C[C@@H](NS(=O)(=O)c1cn(C)c(C(=O)Nc2cc(F)nc(F)c2)c1F)C(C)(F)F` [Compound 159, 4-[[(1R)-2,2-difluoro-1-methyl-propyl]sulfamoyl]-N-(2,6-difluoro-4-pyridyl)-3-fluoro-1-methyl-pyrrole-2-carboxamide], for which the EC50 was 9 nM in the series on HBV [1] and less than 100 nM in the series on HBV [3]. Further, the CC50 at 4 days in series [2] and in series [4] was greater than 25000 nM throughout.

As to `Cn1cc(S(=O)(=O)NC2(C(F)(F)F)CCC2)c(Cl)c1C(=O)Nc1ccnc(C#N)c1` [Compound 40, 3-chloro-N-(2-cyano-4-pyridyl)-1-methyl-4-[[1-(trifluoromethyl)cyclobutyl]sulfamoyl]pyrrole-2-carboxamide], the EC50 with HBV [1] and in the series with HBV [3] was 20 nM in each case. Moreover, the half-maximal cytotoxic concentration (CC50) at 4 days in series [2] and in series [4] was greater than 25000 nM each time.

For `C[C@@H](NS(=O)(=O)c1cn(C)c(C(=O)Nc2ccnc(Cl)c2)c1F)C(C)(F)F` [Compound 61, N-(2-chloro-4-pyridyl)-4-[[(1R)-2,2-difluoro-1-methyl-propyl]sulfamoyl]-3-fluoro-1-methyl-pyrrole-2-carboxamide], the results for the EC50 with HBV [1] and in the series with HBV [3] were 20 nM and 10 nM, respectively. Moreover, the CC50 at 4 days in series [2] and in series [4] was greater than 25000 nM throughout.

As to `C[C@@H](NS(=O)(=O)c1cn(C)c(C(=O)Nc2ccnc(Br)c2)c1F)C(F)(F)F` [Compound 23, N-(2-bromo-4-pyridyl)-3-fluoro-1-methyl-4-[[(1R)-2,2,2-trifluoro-1-methyl-ethyl]sulfamoyl]pyrrole-2-carboxamide], the EC50 with HBV [1] and in the series with HBV [3] was 10 nM each time. Besides, the 50% cytotoxic concentration (CC50) at 4 days in series [2] and in series [4] was greater than 25000 nM in each case.

Take `C[C@@H](NS(=O)(=O)c1cn(C)c(C(=O)Nc2ccnc(C(F)F)c2)c1Cl)C(F)(F)F` [Compound 74, 3-chloro-N-[2-(difluoromethyl)-4-pyridyl]-1-methyl-4-[[(1R)-2,2,2-trifluoro-1-methyl-ethyl]sulfamoyl]pyrrole-2-carboxamide]: the EC50 with HBV [1] and in the series on HBV [3] was 20 nM each time. Further, the CC50 at 4 days in series [2] and in series [4] was greater than 25000 nM each time.

`C[C@@H](NS(=O)(=O)c1cn(C)c(C(=O)Nc2cc(F)nc(F)c2)c1Cl)C(C)(F)F` [Compound 104, 3-chloro-4-[[(1R)-2,2-difluoro-1-methyl-propyl]sulfamoyl]-N-(2,6-difluoro-4-pyridyl)-1-methyl-pyrrole-2-carboxamide]: the EC50 is 10 nM with HBV [1] and less than 100 nM with HBV [3]. Besides, the CC50 at 4 days in series [2] and in series [4] was greater than 25000 nM each time.

`Cc1cc(NC(=O)c2c(Cl)c(S(=O)(=O)N[C@H](C)C(F)(F)F)cn2C)cc(C(F)F)n1` [Compound 177, 3-chloro-N-[2-(difluoromethyl)-6-methyl-4-pyridyl]-1-methyl-[[(1R)-2,2,2-trifluoro-1-methyl-ethyl]sulfamoyl]pyrrole-2-carboxamide]: the results for the EC50 with HBV [1] and in the series on HBV [3] were 100 nM and 260 nM, respectively. Moreover, in series [2], the CC50 at 4 days was greater than 25000 nM.

For `C[C@@H](NS(=O)(=O)c1cn(C)c(C(=O)Nc2ccnc(C#N)c2)c1F)C(C)(F)F` [Compound 63, N-(2-cyano-4-pyridyl)-4-[[(1R)-2,2-difluoro-1-methyl-propyl]sulfamoyl]-3-fluoro-1-methyl-pyrrole-2-carboxamide], the EC50 in the series on HBV [1] was found to be 30 nM; in the series on HBV [3], 10 nM. In addition, the CC50 at 4 days in series [2] and in series [4] was greater than 25000 nM each time.

For the compound `C[C@@H](NS(=O)(=O)c1cn(C)c(C(=O)Nc2ccnc(Br)c2F)c1F)C(C)(F)F` [Compound 176, N-(2-bromo-3-fluoro-4-pyridyl)-4-[[(1R)-2,2-difluoro-1-methyl-propyl]sulfamoyl]-3-fluoro-1-methyl-pyrrole-2-carboxamide], the EC50 in the series with HBV [1] is 3 nM; with HBV [3], less than 100 nM. The CC50 at 4 days in series [2] is greater than 25000 nM.

In turn, `Cn1cc(S(=O)(=O)NC2(C)CC(F)(F)C2)c(Cl)c1C(=O)Nc1cc(F)nc(F)c1` [Compound 115, 3-chloro-4-[(3,3-difluoro-1-methyl-cyclobutyl)sulfamoyl]-N-(2,6-difluoro-4-pyridyl)-1-methyl-pyrrole-2-carboxamide] displayed an EC50 in the series with HBV [1] of 6 nM. Moreover, the CC50 at 4 days in series [2] and in series [4] was greater than 25000 nM in each case.

Regarding `C[C@@H](NS(=O)(=O)c1cn(C)c(C(=O)Nc2ccnc(Br)c2)c1Cl)C(F)(F)F` [Compound 106, N-(2-bromo-4-pyridyl)-3-chloro-1-methyl-4-[[(1R)-2,2,2-trifluoro-1-methyl-ethyl]sulfamoyl]pyrrole-2-carboxamide], a half-maximal effect in the series with HBV [1] (EC50) was put at 20 nM. Also, the CC50 at 4 days in series [2] and in series [4] was greater than 25000 nM throughout.

On to `Cn1cc(S(=O)(=O)NC2(C)CC(F)(F)C2)c(F)c1C(=O)Nc1cc(F)nc(F)c1` [Compound 132, 4-[(3,3-difluoro-1-methyl-cyclobutyl)sulfamoyl]-N-(2,6-difluoro-4-pyridyl)-3-fluoro-1-methyl-pyrrole-2-carboxamide], for which the midpoint of the response with HBV [1], the EC50, lay at 10 nM. For the same compound, the CC50 at 4 days in series [2] and in series [4] was greater than 25000 nM each time.

In the series with HBV [1], `Cc1cc(NC(=O)c2c(F)c(S(=O)(=O)N[C@H](C)C(F)(F)F)cn2C)cc(Br)n1` [Compound 154, N-(2-bromo-6-methyl-4-pyridyl)-3-fluoro-1-methyl-4-[[(1R)-2,2,2-trifluoro-1-methyl-ethyl]sulfamoyl]pyrrole-2-carboxamide] came in with an EC50 of 80 nM. The CC50 at 4 days in series [2] and in series [4] was greater than 25000 nM throughout.

Turning to `Cc1cc(NC(=O)c2c(F)c(S(=O)(=O)N[C@H](C)C(F)(F)F)cn2C)cc(C(F)F)n1` [Compound 179, N-[2-(difluoromethyl)-6-methyl-4-pyridyl]-3-fluoro-1-methyl-[[(1R)-2,2,2-trifluoro-1-methyl-ethyl]sulfamoyl]pyrrole-2-carboxamide], the EC50 with HBV [1] amounted to 70 nM; with HBV [3] it was 210 nM. Besides, the CC50 at 4 days in series [2] was greater than 25000 nM.

On to `Cc1c(S(=O)(=O)N[C@H](C)C(F)(F)F)c(F)c(C(=O)Nc2ccnc(Cl)c2)n1C` [Compound 200, N-(2-chloro-4-pyridyl)-3-fluoro-1,5-dimethyl-4-[[(1R)-2,2,2-trifluoro-1-methyl-ethyl]sulfamoyl]pyrrole-2-carboxamide], for which the EC50 in the series with HBV [1] amounted to 20 nM; in the series with HBV [3], 110 nM. In series [2], this compound came in with a CC50 at 4 days greater than 25000 nM.

On to `Cc1c(S(=O)(=O)N[C@H](C)C(F)(F)F)c(F)c(C(=O)Nc2cc(F)nc(F)c2)n1C` [Compound 199, N-(2,6-difluoro-4-pyridyl)-3-fluoro-1,5-dimethyl-4-[[(1R)-2,2,2-trifluoro-1-methyl-ethyl]sulfamoyl]pyrrole-2-carboxamide], for which the figures for the EC50 in the series with HBV [1] and in the series with HBV [3] were 6 nM and less than 100 nM, respectively. In series [2], this compound gave a CC50 at 4 days greater than 25000 nM.

Take `Cn1cc(S(=O)(=O)NC2(C)CC(F)(F)C2)c(F)c1C(=O)Nc1ccnc(C(F)F)c1` [Compound 83, 4-[(3,3-difluoro-1-methyl-cyclobutyl)sulfamoyl]-N-[2-(difluoromethyl)-4-pyridyl]-3-fluoro-1-methyl-pyrrole-2-carboxamide]: in the series on HBV [1], the response was half-maximal at 10 nM (EC50). Further, the CC50 at 4 days in series [2] and in series [4] was greater than 25000 nM each time.

On to `Cc1cc(NC(=O)c2c(F)c(S(=O)(=O)NC3(C(F)(F)F)CCC3)cn2C)cc(F)n1` [Compound 172, 3-fluoro-N-(2-fluoro-6-methyl-4-pyridyl)-1-methyl-4-[[1-(trifluoromethyl)cyclobutyl]sulfamoyl]pyrrole-2-carboxamide], for which the EC50 in the series with HBV [1] turned out to be 10 nM. The cytotoxic concentration (CC50) at 4 days in series [2] and in series [4] was greater than 25000 nM each time.

For the compound `C[C@@H](NS(=O)(=O)c1cn(C)c(C(=O)Nc2ccnc(Br)c2F)c1Cl)C(F)(F)F` [Compound 139, N-(2-bromo-3-fluoro-4-pyridyl)-3-chloro-1-methyl-4-[[(1R)-2,2,2-trifluoro-1-methyl-ethyl]sulfamoyl]pyrrole-2-carboxamide], the response in the series with HBV [1] was half-maximal at 20 nM (EC50). Besides, the CC50 at 4 days in series [2] and in series [4] was greater than 25000 nM throughout.
